Literature values, collected in patent US5277910A, “Process for the preparation of a pharmaceutical composition selectively lowering the blood-lipid level” (priority 1991, dated 1994).

Assays:
[1] = test system: monkeys; details: monkeys fed with alfalfa; in words
[2] = in words

uterotrophic activity [2] | Structure (SMILES) | induced syndrome [1]
– | N=C(N)NOCCC(N)C(=O)O (centres unmarked) [Canavanine, 2-amino-4-(guanidinooxy)-butyric acid] | induces a syndrome resembling lupus erithemathosus
high uterotrophic activity | O=c1oc2cc(O)ccc2c2oc3cc(O)ccc3c12 [coumestrol] | –
